Reference: patent US20080057086A1, “COLON-TARGETED ORAL FORMULATIONS OF CYTIDINE ANALOGS” (PHARMION CORPORATION, priority 2006, published 2008)
Like-named read-outs stand apart in the source and are kept apart here.

Key:
total hemoglobin = conditions: β^0-thalassemic patient, cited from earlier work
[1] = Caco 2 monolayer permeability of 5-azacytidine with and without excipients; format: in vitro ADME; conditions: human
Experimental: The Caco-2 cells are an intestinal epithelial cell line (human colon adenocarcinoma established from the primary colon tumor (adenocarcinoma)) Monolayers of Caco-2 cells are used to classify the intestinal absorption potential of a drug candidate molecule. The assay was carried out in accordance with P. Artursson and J. Karlsson, “Correlation between Oral Drug Absorption in Humans and Apparent Drug Permeability Coefficients in Human Intestinal Epithelial (Caco-2) Cells”, Biochem. Biophys. Res. Commun. 175, 880 (1991).
Briefly, Caco-2 cells were grown to confluence on collagen-coated, microporous polycarbonate in 12-well plates. For the assay buffer, Dulbecco's Phosphate Buffered Saline at pH 7.4 was used. […] The test compound was then dosed on either the apical or basolateral side of the Caco-2 monolayer, and flux across the monolayer was determined both one and two hours after dosing. Results were compared to control high permeability compounds metoprolol and antipyrine and low permeability compounds atenolol and ranitidine, and were expressed as Papp (apparent permeability) compared to reference compound standards. Integrity of the monolayers was determine both before and after testing by measuring the […] electrical resistance (TEER) value. Apparent permeability is calculated as (dCr/dt)×Vr/(A×C0) where dCr/dt is the slope of the cumulative concentration in the receiver compartment versus time in micromolar per second, Vr is the volume of the receiver compartment in cubic centimeters, A is the area of the cell monolayer, and C0 is the measured initial donor concentration in micromolar.

leukemic mice = conditions: cited from earlier work
[2] = PO administration with THU versus without, bioassay

For `Nc1ncn([C@@H]2O[C@H](CO)[C@@H](O)[C@H]2O)c(=O)n1` [5-azacytidine, 4-amino-1-β-D-ribofuranosyl-1,3,5-triazin-2(1H)-one], the Hemoglobin levels (total hemoglobin; 2 mg/d tid PO with co-administration of THU) is given as “did not result in increased hemoglobin levels”, the Hemoglobin levels (total hemoglobin; 2 mg/kg/d IV) is given as “measurable increase” and the Papp at 1000 micromolar ([1]; Caco-2, pH 7.4, with Carboxymethyl Cellulose 0.1%) is given as 0.26 ± 0.09 ×10⁻⁶ cm/s. It also gave a Papp at 1000 micromolar ([1]; Caco-2, pH 7.4, with Chitosan 0.1%) of 0.15 ± 0.01 ×10⁻⁶ cm/s, a Papp at 1000 micromolar ([1]; Caco-2, pH 7.4, with Labrafil 0.001%) of 0.27 ± 0.02 ×10⁻⁶ cm/s and a Papp at 1000 micromolar ([1]; Caco-2, pH 7.4, with Labrafil 0.01%) of 0.23 ± 0.04 ×10⁻⁶ cm/s. For the same compound, the Papp at 1000 micromolar ([1]; Caco-2, pH 7.4, with Labrafil 0.05%) was 0.38 ± 0.13 ×10⁻⁶ cm/s, the Papp at 1000 micromolar ([1]; Caco-2, pH 7.4, with Labrafil 0.1%) was 0.34 ± 0.002 ×10⁻⁶ cm/s and the Papp at 1000 micromolar ([1]; Caco-2, pH 7.4, with Poloxamer F127 0.1%) was 0.13 ± 0.02 ×10⁻⁶ cm/s. The Papp at 1000 micromolar ([1]; Caco-2, pH 7.4, with Sodium Laurate 0.001%) was 0.19 ± 0.04 ×10⁻⁶ cm/s, the Papp at 1000 micromolar ([1]; Caco-2, pH 7.4, with Sodium Laurate 0.01%) was 0.19 ± 0.02 ×10⁻⁶ cm/s and the Papp at 1000 micromolar ([1]; Caco-2, pH 7.4, with Sodium Laurate 0.05%) was 0.17 ± 0.03 ×10⁻⁶ cm/s. It also gave a Papp at 1000 micromolar ([1]; Caco-2, pH 7.4, with Sodium Laurate 0.1%, high permeability due to toxic effects of sodium laurate on Caco 2 cells) of 15.8 ± 1.77 ×10⁻⁶ cm/s, a Papp at 1000 micromolar ([1]; Caco-2, pH 7.4, with Solutol 0.1%) of 0.26 ± 0.04 ×10⁻⁶ cm/s and a Papp at 1000 micromolar ([1]; Caco-2, pH 7.4, with TPGS 0.001%) of 0.33 ± 0.08 ×10⁻⁶ cm/s. It also gave a Papp at 1000 micromolar ([1]; Caco-2, pH 7.4, with TPGS 0.01%) of 0.3 ± 0.05 ×10⁻⁶ cm/s, a Papp at 1000 micromolar ([1]; Caco-2, pH 7.4, with TPGS 0.05%) of 0.45 ± 0.18 ×10⁻⁶ cm/s and a Papp at 1000 micromolar ([1]; Caco-2, pH 7.4, with TPGS 0.1%) of 0.38 ± 0.09 ×10⁻⁶ cm/s. The Papp A→B at 1000 micromolar ([1]; Caco-2, pH 7.4, read-out: Papp (apical to basolateral permeability)) was 0.15 ± 0.02 ×10⁻⁶ cm/s, the “Effect of THU on clearance or degradation of 5-azacytidine” value (leukemic mice; IP administration with THU, bioassay) was “little effect” and the Cmax (leukemic mice; [2]) was “significantly increased”. The t1/2 (leukemic mice; [2]) was “significantly increased”, the “Efficacy with co-administration of THU” value (leukemic mice; PO with THU, all doses except the highest chronic dose which was toxic) was “increased efficacy” and the “Effect of THU on pharmacodynamic effects of 5-azacytidine” value (leukemic mice; acute and chronic IP dosing with THU, except at the highest chronic dose which was toxic) was “did not influence”.
